Experiments:
[1] = target: T1, Estrogen receptor (Homo sapiens, UniProt P03372); conditions: sf9; further: in other assays of this panel Not Active means under 50% inhibition at 10 µM
T1 sequence (P03372 whole entry): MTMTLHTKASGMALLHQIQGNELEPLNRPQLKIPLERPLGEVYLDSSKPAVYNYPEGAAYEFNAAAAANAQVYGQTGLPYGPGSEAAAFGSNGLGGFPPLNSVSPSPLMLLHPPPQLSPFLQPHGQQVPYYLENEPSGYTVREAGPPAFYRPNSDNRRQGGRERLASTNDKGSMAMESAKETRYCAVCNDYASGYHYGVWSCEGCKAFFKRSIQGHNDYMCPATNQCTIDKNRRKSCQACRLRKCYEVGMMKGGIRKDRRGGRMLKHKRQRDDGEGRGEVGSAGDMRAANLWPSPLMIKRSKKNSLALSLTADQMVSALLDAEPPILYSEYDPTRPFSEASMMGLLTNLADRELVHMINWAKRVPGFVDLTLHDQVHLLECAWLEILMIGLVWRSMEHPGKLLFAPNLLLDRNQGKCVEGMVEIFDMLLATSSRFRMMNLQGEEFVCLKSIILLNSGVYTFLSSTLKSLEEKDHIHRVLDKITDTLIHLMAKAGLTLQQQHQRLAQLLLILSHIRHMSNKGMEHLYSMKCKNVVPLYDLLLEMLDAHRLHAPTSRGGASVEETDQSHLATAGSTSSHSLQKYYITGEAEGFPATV

[2] = target: T2, Cathepsin G (Homo sapiens, UniProt P08311); format: tissue-based; conditions: neutrophil;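 further: inhibition of Cathepsin G enzyme activity, tested on an AMC-conjugated peptide substrate; in other assays of this panel Not Active means under 50% inhibition at 10 µM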
T2 sequence (P08311 whole entry): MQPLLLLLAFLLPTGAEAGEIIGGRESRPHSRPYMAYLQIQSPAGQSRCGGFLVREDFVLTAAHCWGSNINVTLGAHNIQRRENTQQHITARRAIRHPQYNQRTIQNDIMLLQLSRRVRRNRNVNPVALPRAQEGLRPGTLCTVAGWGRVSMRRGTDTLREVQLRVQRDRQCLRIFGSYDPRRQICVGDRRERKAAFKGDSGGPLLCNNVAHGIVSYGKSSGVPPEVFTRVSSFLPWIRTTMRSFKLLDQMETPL

[3] = target: Voltage-gated inwardly rectifying potassium channel KCNH2 (Homo sapiens, UniProt Q12809); conditions: hek293; further: in other assays of this panel Not Active means under 50% inhibition at 10 µM
[4] = DRUGMATRIX: Leukotriene, BLT (LTB4) radioligand binding (ligand: [3H]LTB4); format: cell membranes, Membrane; conditions: u-937; Not Active = under 50% inhibition at 10 µM
[5] = target: T3, Thromboxane-A synthase (Homo sapiens, UniProt P24557); test: biochemical; format: tissue-based, Platelet;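 further: enzyme inhibition assay with PGH2 supplied as substrate; in other assays of this panel Not Active means under 50% inhibition at 10 µM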
T3 sequence (P24557 whole entry): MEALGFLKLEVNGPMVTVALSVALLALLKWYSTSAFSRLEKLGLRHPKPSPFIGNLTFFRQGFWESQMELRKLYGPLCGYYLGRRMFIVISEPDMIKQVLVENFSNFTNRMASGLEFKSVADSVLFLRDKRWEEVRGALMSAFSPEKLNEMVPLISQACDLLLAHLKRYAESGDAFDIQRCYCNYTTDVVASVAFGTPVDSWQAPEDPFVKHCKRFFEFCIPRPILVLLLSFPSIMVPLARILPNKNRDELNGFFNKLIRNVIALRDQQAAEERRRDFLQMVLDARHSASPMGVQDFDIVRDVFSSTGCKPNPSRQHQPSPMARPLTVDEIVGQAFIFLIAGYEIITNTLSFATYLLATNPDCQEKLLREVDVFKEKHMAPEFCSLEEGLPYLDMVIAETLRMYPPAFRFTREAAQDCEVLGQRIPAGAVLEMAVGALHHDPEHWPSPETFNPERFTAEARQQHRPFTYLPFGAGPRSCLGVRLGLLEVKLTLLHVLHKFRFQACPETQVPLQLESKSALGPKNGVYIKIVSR

[6] = target: Nitric oxide synthase 1 (Rattus norvegicus, UniProt P29476); format: tissue-based, Cerebellum; further: in other assays of this panel Not Active means under 50% inhibition at 10 µM
[7] = target: Cannabinoid receptor 1 (Homo sapiens, UniProt P21554); format: cell membranes, Chem-1, Membrane; conditions: chem-1; further: in other assays of this panel Not Active means under 50% inhibition at 10 µM
[8] = DRUGMATRIX: Serotonin (5-Hydroxytryptamine) 5-HT3 radioligand binding (ligand: [3H] GR-65630); format: cell membranes, Membrane; conditions: hek293; Not Active = under 50% inhibition at 10 µM
[9] = target: Cytochrome P450 2C9 (Homo sapiens, UniProt P11712); conditions: bti-tn-5b1-4; further: in other assays of this panel Not Active means under 50% inhibition at 10 µM
Cytochrome P450 2C9, sequence (P11712 whole entry): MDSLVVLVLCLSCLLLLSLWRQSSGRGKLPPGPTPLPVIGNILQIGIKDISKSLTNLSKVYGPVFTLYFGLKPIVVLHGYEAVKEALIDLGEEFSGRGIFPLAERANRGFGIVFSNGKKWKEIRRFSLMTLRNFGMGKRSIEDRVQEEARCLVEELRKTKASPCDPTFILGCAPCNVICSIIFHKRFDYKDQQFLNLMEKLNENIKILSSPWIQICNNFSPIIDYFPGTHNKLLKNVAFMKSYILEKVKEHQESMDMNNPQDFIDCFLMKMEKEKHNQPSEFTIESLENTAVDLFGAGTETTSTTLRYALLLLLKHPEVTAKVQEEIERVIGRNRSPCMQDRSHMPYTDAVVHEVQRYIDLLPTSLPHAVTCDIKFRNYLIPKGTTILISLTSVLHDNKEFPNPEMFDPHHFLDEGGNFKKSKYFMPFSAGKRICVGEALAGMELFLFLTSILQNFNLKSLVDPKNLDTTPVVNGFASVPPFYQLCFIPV

Cannabinoid receptor 1, sequence (P21554 whole entry): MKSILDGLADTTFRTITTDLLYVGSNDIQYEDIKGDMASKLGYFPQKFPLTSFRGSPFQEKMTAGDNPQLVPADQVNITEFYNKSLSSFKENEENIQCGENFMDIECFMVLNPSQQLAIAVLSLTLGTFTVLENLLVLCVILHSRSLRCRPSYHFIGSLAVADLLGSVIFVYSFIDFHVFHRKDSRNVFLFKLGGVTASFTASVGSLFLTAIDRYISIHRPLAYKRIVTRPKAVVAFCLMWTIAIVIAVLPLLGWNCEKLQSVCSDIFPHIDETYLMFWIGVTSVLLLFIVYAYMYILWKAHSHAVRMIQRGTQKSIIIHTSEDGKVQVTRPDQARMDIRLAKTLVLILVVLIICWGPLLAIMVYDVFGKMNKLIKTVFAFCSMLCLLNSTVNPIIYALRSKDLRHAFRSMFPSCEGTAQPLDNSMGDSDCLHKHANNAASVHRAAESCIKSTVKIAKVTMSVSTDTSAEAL
Nitric oxide synthase 1, sequence (P29476 whole entry): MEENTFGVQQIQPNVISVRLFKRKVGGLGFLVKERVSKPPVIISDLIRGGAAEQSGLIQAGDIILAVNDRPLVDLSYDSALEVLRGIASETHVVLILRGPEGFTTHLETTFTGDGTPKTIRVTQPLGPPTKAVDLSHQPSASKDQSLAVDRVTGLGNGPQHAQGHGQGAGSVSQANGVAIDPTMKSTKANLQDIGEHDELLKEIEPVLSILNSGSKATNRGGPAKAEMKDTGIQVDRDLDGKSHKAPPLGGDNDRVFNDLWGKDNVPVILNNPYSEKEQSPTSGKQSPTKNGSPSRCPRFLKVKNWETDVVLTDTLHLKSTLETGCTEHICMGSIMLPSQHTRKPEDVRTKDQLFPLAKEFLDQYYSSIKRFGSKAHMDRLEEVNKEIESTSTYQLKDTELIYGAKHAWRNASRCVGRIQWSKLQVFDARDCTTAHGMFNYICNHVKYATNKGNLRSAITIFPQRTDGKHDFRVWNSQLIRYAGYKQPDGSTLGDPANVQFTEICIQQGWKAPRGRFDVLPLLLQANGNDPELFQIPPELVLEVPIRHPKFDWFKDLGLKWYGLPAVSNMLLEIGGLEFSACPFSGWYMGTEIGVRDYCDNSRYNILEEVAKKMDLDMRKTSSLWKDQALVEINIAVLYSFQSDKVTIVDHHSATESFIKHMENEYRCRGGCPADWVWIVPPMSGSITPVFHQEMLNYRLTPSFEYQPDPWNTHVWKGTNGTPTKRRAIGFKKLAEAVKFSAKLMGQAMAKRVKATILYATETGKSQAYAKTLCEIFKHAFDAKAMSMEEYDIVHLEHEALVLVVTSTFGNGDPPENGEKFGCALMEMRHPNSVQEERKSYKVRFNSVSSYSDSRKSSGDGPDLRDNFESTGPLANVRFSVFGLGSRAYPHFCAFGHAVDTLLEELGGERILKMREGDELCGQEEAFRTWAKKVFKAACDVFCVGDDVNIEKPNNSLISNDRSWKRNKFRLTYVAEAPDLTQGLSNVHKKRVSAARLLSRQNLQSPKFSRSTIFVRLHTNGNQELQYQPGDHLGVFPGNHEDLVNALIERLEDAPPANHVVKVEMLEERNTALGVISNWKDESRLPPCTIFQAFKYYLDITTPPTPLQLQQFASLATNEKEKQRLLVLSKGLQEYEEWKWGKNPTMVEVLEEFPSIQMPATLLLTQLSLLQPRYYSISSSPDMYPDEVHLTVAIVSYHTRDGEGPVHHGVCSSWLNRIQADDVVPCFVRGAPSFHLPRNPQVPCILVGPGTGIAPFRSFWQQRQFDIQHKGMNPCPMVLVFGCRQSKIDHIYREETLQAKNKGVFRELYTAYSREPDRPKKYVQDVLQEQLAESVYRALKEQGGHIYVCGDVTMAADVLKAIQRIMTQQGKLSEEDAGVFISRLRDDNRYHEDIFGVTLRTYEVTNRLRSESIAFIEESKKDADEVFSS
Voltage-gated inwardly rectifying potassium channel KCNH2, sequence (Q12809 whole entry): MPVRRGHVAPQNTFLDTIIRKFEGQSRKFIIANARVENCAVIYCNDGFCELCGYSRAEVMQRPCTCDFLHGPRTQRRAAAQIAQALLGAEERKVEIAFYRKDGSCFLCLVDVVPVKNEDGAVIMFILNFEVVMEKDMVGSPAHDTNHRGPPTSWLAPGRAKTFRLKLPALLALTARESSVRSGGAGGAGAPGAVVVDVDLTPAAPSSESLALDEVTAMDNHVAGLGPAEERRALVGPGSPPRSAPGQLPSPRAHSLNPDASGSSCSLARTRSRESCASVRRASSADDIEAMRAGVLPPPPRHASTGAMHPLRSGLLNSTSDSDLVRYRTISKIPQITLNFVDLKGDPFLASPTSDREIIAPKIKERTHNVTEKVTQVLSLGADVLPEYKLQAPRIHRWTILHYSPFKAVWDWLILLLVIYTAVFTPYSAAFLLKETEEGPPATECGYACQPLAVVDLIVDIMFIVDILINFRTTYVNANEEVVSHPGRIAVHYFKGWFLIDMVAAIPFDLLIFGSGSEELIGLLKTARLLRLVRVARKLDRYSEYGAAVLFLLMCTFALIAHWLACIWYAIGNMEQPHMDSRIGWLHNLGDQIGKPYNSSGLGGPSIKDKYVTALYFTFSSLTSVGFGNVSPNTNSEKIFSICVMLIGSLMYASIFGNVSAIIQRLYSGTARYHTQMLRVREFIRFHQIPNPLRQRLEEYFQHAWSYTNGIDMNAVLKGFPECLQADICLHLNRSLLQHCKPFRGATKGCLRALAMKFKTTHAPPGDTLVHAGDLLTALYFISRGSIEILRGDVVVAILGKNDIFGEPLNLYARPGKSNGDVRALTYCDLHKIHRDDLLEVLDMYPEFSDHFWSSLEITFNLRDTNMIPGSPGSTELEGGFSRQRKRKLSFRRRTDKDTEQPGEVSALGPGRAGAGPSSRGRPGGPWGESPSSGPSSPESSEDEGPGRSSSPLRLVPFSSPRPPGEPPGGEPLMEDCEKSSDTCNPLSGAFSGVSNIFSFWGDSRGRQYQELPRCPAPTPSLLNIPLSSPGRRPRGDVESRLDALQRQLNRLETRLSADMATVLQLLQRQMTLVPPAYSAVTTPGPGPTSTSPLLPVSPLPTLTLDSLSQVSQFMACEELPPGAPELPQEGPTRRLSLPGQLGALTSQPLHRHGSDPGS

O=C(c1ccccc1C(F)(F)F)N1CCC(Cc2ccccc2)CC1
IC50 [1]: Not Active
IC50 [2]: Not Active
IC50 [3]: Not Active
Ki [3]: Not Active
IC50 [4]: Not Active
Ki [4]: Not Active
IC50 ([5]; platelet): Not Active
IC50 [6]: Not Active
IC50 [7]: Not Active
IC50 [8]: Not Active
Ki [8]: Not Active

COc1ccc2cc3[n+](cc2c1OC)CCc1cc2c(cc1-3)OCO2.[Cl-] [BERBERINE CHLORIDE]
IC50 [1]: Not Active
IC50 [2]: Not Active
IC50 [3]: Not Active
Ki [3]: Not Active
IC50 [4]: Not Active
Ki [4]: Not Active
IC50 ([5]; platelet): Not Active
IC50 [6]: Not Active
IC50 [7]: Not Active
IC50 [9]: Not Active
Ki [9]: Not Active

CC(=O)Oc1ccc(C(c2ccc(OC(C)=O)cc2)c2ccccn2)cc1 [BISACODYL]
IC50 [1]: Not Active
IC50 [2]: Not Active
IC50 [3]: Not Active
Ki [3]: Not Active
IC50 [4]: Not Active
Ki [4]: Not Active
IC50 ([5]; platelet): Not Active
IC50 [6]: Not Active
IC50 [7]: Not Active
IC50 [8]: Not Active
Ki [8]: Not Active

COc1cc(N)c(Cl)cc1C(=O)NC1CCN(CCCOc2ccc(F)cc2)CC1OC (stereo not drawn) [CISAPRIDE]
IC50 [1]: Not Active
IC50 [2]: Not Active
IC50 [4]: Not Active
Ki [4]: Not Active
IC50 ([5]; platelet): Not Active
IC50 [6]: Not Active
IC50 [7]: Not Active
IC50 [9]: Not Active
Ki [9]: Not Active
IC50 [8]: Not Active
Ki [8]: Not Active

COC(=O)CCc1ccc(OCC(O)CNC(C)C)cc1 (stereo not drawn) [ESMOLOL]
IC50 [2]: Not Active
IC50 [3]: Not Active
Ki [3]: Not Active
IC50 [4]: Not Active
Ki [4]: Not Active
IC50 ([5]; platelet): Not Active
IC50 [6]: Not Active
IC50 [7]: Not Active
IC50 [9]: Not Active
Ki [9]: Not Active
IC50 [8]: Not Active
Ki [8]: Not Active

CC(C(=O)O)c1cccc(Oc2ccccc2)c1 (stereo not drawn) [FENOPROFEN]
IC50 [2]: Not Active
IC50 [3]: Not Active
Ki [3]: Not Active
IC50 [4]: Not Active
Ki [4]: Not Active
IC50 ([5]; platelet): Not Active
IC50 [6]: Not Active
IC50 [7]: Not Active
IC50 [9]: Not Active
Ki [9]: Not Active
IC50 [8]: Not Active
Ki [8]: Not Active

CC(C)(C)NC(=O)[C@H]1CC[C@H]2[C@@H]3CC[C@H]4NC(=O)C=C[C@]4(C)[C@H]3CC[C@]12C [FINASTERIDE]
IC50 [1]: Not Active
IC50 [2]: Not Active
IC50 [3]: Not Active
Ki [3]: Not Active
IC50 [4]: Not Active
Ki [4]: Not Active
IC50 ([5]; platelet): Not Active
IC50 [6]: Not Active
IC50 [7]: Not Active
IC50 [8]: Not Active
Ki [8]: Not Active

COc1ccc2c3c1O[C@H]1C[C@@H](O)C=C[C@@]31CCN(C)C2 [GALANTAMINE]
IC50 [1]: Not Active
IC50 [2]: Not Active
IC50 [3]: Not Active
Ki [3]: Not Active
IC50 [4]: Not Active
Ki [4]: Not Active
IC50 ([5]; platelet): Not Active
IC50 [6]: Not Active
IC50 [7]: Not Active
IC50 [8]: Not Active
Ki [8]: Not Active

N=C(N)NC(=O)Cc1c(Cl)cccc1Cl [GUANFACINE]
IC50 [2]: Not Active
IC50 [3]: Not Active
Ki [3]: Not Active
IC50 [4]: Not Active
Ki [4]: Not Active
IC50 ([5]; platelet): Not Active
IC50 [6]: Not Active
IC50 [7]: Not Active
IC50 [9]: Not Active
Ki [9]: Not Active
IC50 [8]: Not Active
Ki [8]: Not Active

Oc1c(Cl)cc(Cl)c(Cl)c1Cc1c(O)c(Cl)cc(Cl)c1Cl [HEXACHLOROPHENE]
IC50 [2]: Not Active
IC50 [3]: Not Active
Ki [3]: Not Active
IC50 [4]: Not Active
Ki [4]: Not Active
IC50 ([5]; read-out: IC50): 3.09 µM
IC50 [6]: Not Active
IC50 [7]: Not Active
IC50 [9]: Not Active
Ki [9]: Not Active
IC50 [8]: Not Active
Ki [8]: Not Active

NNc1nncc2ccccc12 [HYDRALAZINE]
IC50 [2]: Not Active
IC50 [3]: Not Active
Ki [3]: Not Active
IC50 [4]: Not Active
Ki [4]: Not Active
IC50 ([5]; platelet): Not Active
IC50 [6]: Not Active
IC50 [7]: Not Active
IC50 [9]: Not Active
Ki [9]: Not Active
IC50 [8]: Not Active
Ki [8]: Not Active

COC1=C(OC)C(=O)C(CCCCCCCCCCO)=C(C)C1=O [IDEBENONE]
IC50 [1]: Not Active
IC50 [2]: Not Active
IC50 [3]: Not Active
Ki [3]: Not Active
IC50 [4]: Not Active
Ki [4]: Not Active
IC50 ([5]; platelet): Not Active
IC50 [6]: Not Active
IC50 [7]: Not Active
IC50 [8]: Not Active
Ki [8]: Not Active

Cc1c(OCC(F)(F)F)ccnc1C[S+]([O-])c1nc2ccccc2[nH]1 (stereo not drawn) [LANSOPRAZOLE]
IC50 [2]: Not Active
IC50 [3]: Not Active
Ki [3]: Not Active
IC50 [4]: Not Active
Ki [4]: Not Active
IC50 ([5]; platelet): Not Active
IC50 [6]: Not Active
IC50 [7]: Not Active
IC50 [9]: Not Active
Ki [9]: Not Active
IC50 [8]: Not Active
Ki [8]: Not Active

CCN(CC)CCOCCC1=CCC2CC1C2(C)C (stereo not drawn) [MYRTECAINE]
IC50 [1]: Not Active
IC50 [2]: Not Active
IC50 [4]: Not Active
Ki [4]: Not Active
IC50 ([5]; platelet): Not Active
IC50 [6]: Not Active
IC50 [7]: Not Active
IC50 [9]: Not Active
Ki [9]: Not Active
IC50 [8]: Not Active
Ki [8]: Not Active

COC(=O)Nc1nc2ccc(C(=O)c3cccs3)cc2[nH]1 [NOCODAZOLE]
IC50 [2]: Not Active
IC50 [3]: Not Active
Ki [3]: Not Active
IC50 [4]: Not Active
Ki [4]: Not Active
IC50 ([5]; platelet): Not Active
IC50 [6]: Not Active
IC50 [7]: Not Active
IC50 [9]: Not Active
Ki [9]: Not Active
IC50 [8]: Not Active
Ki [8]: Not Active

CCn1cc(C(=O)O)c(=O)c2cnc(N3CCCC3)nc21 [PIROMIDIC ACID]
IC50 [2]: Not Active
IC50 [3]: Not Active
Ki [3]: Not Active
IC50 [4]: Not Active
Ki [4]: Not Active
IC50 ([5]; platelet): Not Active
IC50 [6]: Not Active
IC50 [7]: Not Active
IC50 [9]: Not Active
Ki [9]: Not Active
IC50 [8]: Not Active
Ki [8]: Not Active

COc1cc2nc(N3CCN(C(=O)c4ccco4)CC3)nc(N)c2cc1OC [PRAZOSIN]
IC50 [1]: Not Active
IC50 [2]: Not Active
IC50 [4]: Not Active
Ki [4]: Not Active
IC50 ([5]; platelet): Not Active
IC50 [6]: Not Active
IC50 [7]: Not Active
IC50 [9]: Not Active
Ki [9]: Not Active

CCCN(CCC)S(=O)(=O)c1ccc(C(=O)O)cc1 [PROBENECID]
IC50 [2]: Not Active
IC50 [3]: Not Active
Ki [3]: Not Active
IC50 [4]: Not Active
Ki [4]: Not Active
IC50 ([5]; platelet): Not Active
IC50 [6]: Not Active
IC50 [7]: Not Active
IC50 [9]: Not Active
Ki [9]: Not Active
IC50 [8]: Not Active
Ki [8]: Not Active

CCCOc1ccc(C(=O)OCCN(CC)CC)cc1N [PROPARACAINE]
IC50 [2]: Not Active
IC50 [3]: Not Active
Ki [3]: Not Active
IC50 [4]: Not Active
Ki [4]: Not Active
IC50 ([5]; platelet): Not Active
IC50 [6]: Not Active
IC50 [7]: Not Active
IC50 [9]: Not Active
Ki [9]: Not Active
IC50 [8]: Not Active
Ki [8]: Not Active

CC(C)c1cccc(C(C)C)c1O [PROPOFOL]
IC50 [1]: Not Active
IC50 [2]: Not Active
IC50 [3]: Not Active
Ki [3]: Not Active
IC50 [4]: Not Active
Ki [4]: Not Active
IC50 ([5]; platelet): Not Active
IC50 [6]: Not Active
IC50 [7]: Not Active
IC50 [8]: Not Active
Ki [8]: Not Active

Reference: ChEMBL document CHEMBL1909046, “DrugMatrix in vitro pharmacology data”
